Measurements reported in ChEMBL document CHEMBL1137419, “Identification of potent 5-pyrimidinyl-2-aminothiazole CDK4, 6 inhibitors with significant selectivity over CDK1, 2, 5, 7, and 9” (Bioorg Med Chem Lett, 2006).

How the values were obtained:
[1] = target: Cyclin-dependent kinase 5 (Homo sapiens, UniProt Q00535); assay: Inhibition of CDK5
[2] = system: EOL1; assay: Cell cycle arrest in Eol1 cells by accumulation at G1 phase; assay type: functional, Homo sapiens
[3] = target: T1, Cyclin-dependent kinase 4 (Homo sapiens, UniProt P11802); assay: Inhibition of pRb phosphorylation at Ser780 residue by CDK4; assay type: functional; settings: concentration not given here
T1 sequence (P11802 whole entry): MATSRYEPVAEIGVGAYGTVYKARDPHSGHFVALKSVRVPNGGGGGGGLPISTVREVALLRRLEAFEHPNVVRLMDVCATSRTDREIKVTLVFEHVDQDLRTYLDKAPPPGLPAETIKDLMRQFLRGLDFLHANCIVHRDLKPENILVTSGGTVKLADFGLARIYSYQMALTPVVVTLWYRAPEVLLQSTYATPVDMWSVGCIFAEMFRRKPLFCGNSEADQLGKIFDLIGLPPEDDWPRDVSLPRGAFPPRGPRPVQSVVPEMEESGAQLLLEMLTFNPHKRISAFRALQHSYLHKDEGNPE

[4] = target: Cyclin-dependent kinase 6 (Homo sapiens) (UniProt Q00534); assay: Inhibition of pRb phosphorylation at Ser780 residue by CDK6; assay type: functional; settings: concentration not given here
Cyclin-dependent kinase 6 (Homo sapiens), sequence (Q00534 whole entry): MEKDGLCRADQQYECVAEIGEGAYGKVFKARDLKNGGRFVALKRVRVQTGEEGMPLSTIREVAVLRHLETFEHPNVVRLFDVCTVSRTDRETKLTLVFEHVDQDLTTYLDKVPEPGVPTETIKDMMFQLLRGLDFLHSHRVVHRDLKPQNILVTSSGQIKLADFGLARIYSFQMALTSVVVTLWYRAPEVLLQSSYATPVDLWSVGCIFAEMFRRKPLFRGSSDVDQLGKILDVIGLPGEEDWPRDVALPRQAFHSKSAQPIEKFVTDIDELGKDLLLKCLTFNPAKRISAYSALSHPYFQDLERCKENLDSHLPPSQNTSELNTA

[5] = system: EOL1; assay: Inhibition of pRb phosphorylation in Eol1 xenografted in nude rat at 510 nM, iv after 24 hrs; assay type: functional, Homo sapiens
[6] = system: EOL1; assay: Inhibition of BrdU incorporation in Eol1 xenografted in nude rat at 510 nM, iv after 24 hrs; assay type: functional, Homo sapiens
[7] = target: Cyclin-dependent kinase 2 (Homo sapiens, UniProt P24941); assay: Inhibition of CDK2
[8] = target: Cyclin-dependent kinase 7 (Homo sapiens, UniProt P50613); assay: Inhibition of CDK7
Cyclin-dependent kinase 7, sequence (P50613 whole entry): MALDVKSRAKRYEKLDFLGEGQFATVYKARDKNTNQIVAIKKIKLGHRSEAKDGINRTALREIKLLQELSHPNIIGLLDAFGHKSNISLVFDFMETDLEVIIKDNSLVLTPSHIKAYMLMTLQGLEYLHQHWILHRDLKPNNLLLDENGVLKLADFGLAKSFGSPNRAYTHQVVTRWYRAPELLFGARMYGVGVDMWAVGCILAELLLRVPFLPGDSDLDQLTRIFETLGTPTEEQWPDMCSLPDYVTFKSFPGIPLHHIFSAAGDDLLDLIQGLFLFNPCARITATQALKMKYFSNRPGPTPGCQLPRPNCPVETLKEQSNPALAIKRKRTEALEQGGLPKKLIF

[9] = target: T1, Cyclin-dependent kinase 4; assay: Inhibition of CDK4
[10] = target: Cyclin-dependent kinase 9 (Homo sapiens, UniProt P50750); assay: Inhibition of CDK9
Cyclin-dependent kinase 9, sequence (P50750 whole entry): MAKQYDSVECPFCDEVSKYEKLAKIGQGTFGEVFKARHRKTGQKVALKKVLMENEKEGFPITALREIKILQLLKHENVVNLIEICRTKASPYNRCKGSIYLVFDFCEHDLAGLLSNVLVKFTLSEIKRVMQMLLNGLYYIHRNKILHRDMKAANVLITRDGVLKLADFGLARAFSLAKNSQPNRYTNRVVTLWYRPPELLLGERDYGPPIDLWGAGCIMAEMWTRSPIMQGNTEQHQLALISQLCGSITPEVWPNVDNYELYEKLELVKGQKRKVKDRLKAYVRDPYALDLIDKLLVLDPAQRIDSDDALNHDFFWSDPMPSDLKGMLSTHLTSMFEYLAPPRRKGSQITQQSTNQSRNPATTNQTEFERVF

[11] = target: Cyclin-dependent kinase 1 (Homo sapiens, UniProt P06493); assay: Inhibition of CDK1
Cyclin-dependent kinase 1, sequence (P06493 whole entry): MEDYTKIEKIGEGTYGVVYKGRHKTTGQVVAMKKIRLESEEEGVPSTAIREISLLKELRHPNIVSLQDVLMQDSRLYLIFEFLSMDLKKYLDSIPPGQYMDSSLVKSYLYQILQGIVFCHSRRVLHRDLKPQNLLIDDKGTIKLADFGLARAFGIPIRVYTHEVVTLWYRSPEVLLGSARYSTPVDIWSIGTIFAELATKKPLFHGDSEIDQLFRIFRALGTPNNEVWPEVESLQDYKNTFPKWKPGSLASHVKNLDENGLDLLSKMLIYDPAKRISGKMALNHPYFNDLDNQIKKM

Cyclin-dependent kinase 5, sequence (Q00535 whole entry): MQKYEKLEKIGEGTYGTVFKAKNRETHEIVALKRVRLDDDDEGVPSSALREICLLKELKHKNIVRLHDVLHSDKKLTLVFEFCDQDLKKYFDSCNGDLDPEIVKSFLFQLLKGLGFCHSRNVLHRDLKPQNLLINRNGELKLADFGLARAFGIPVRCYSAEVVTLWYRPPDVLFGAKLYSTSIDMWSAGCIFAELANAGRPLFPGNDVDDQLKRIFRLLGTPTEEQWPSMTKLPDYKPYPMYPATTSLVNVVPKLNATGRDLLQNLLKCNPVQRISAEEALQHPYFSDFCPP

Row | Compound | IC50 [1] [nM] | Activity [2] [%] | inhibition [3] [%] | inhibition [4] [%] | Inhibition [5] [%] | Inhibition [6] [%] | IC50 [7] [nM] | IC50 [8] [nM] | IC50 [9] [nM] | IC50 [10] [nM] | IC50 [11] [nM]
1 | Cc1cc(-c2cnc(Nc3cnc(CN4CCN(C)CC4)cn3)s2)nc(OC2CCCCC2)n1 | 3000 | 90 | > 80 | > 80 | 99 | 91 |  |  |  |  | 
2 | Cc1cnc(OC2CCCCC2)nc1-c1cnc(Nc2ccccn2)s1 | > 10000 |  |  |  |  |  | 270 | 190 | 13 | 26 | > 1000
3 | Cc1cc(-c2cnc(Nc3ccccn3)s2)nc(OC2CCCCC2)n1 | > 10000 |  |  |  |  |  | > 10000 | > 10000 | 34 | > 10000 | > 10000
4 | c1ccc(Nc2ncc(-c3ccnc(OC4CCCCC4)n3)s2)nc1 | 34 |  |  |  |  |  | 14 | 20 | 4.2 | 2.5 | 24
